# Assay results reported in ChEMBL document CHEMBL1201861, “Genomics of Drug Sensitity in Cancer screening data, Wellcome Trust Sanger Institute”.
# What was measured:
# [1] = system: NCI-H1437; assay: cells; format: functional, cell-based, Homo sapiens;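 also: growth inhibition of human NCI-H1437 cells, read out by a cell viability assay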
# Description: SANGER: Inhibition of human NCI-H1437 cell growth in a cell viability assay.
# [2] = system: A 172; assay: cells; format: functional, cell-based, Homo sapiens;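 also: growth inhibition of A172 cells, measured with a cell viability readout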
# Description: SANGER: Inhibition of human A172 cell growth in a cell viability assay.
# [3] = system: NCI-H358; assay: cells; format: functional, cell-based, Homo sapiens;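 also: growth inhibition of NCI-H358 human cells, read out with a cell viability assay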
# Description: SANGER: Inhibition of human NCI-H358 cell growth in a cell viability assay.
# [4] = system: GI-ME-N; assay: cells; format: functional, cell-based, Homo sapiens;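 also: growth inhibition of human GI-ME-N cells, read out with a cell viability assay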
# Description: SANGER: Inhibition of human GI-ME-N cell growth in a cell viability assay.
# [5] = system: NCI-H1304; assay: cells; format: functional, cell-based, Homo sapiens;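 also: growth inhibition of the cancer cell line, measured in a cell viability assay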
# Description: SANGER: Inhibition of human NCI-H1304 cell growth in a cell viability assay.
# [6] = system: NCI-H1581; assay: cells; format: functional, cell-based, Homo sapiens
# Description: SANGER: Inhibition of human NCI-H1581 cell growth in a cell viability assay.
# [7] = system: ST486; assay: SANGER: Inhibition of human ST486 cell growth in a cell viability assay.; format: functional, cell-based
# [8] = system: 8505C; assay: cells; format: functional, cell-based, Homo sapiens
# Description: SANGER: Inhibition of human 8505C cell growth in a cell viability assay.
# [9] = system: RPMI-2650; assay: cells; format: functional, cell-based, Homo sapiens
# Description: SANGER: Inhibition of human RPMI-2650 cell growth in a cell viability assay.
# [10] = system: UMUC3; assay: cells; format: functional, cell-based, Homo sapiens;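 also: growth inhibition of human UM-UC-3 cells, read out with a cell viability assay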
# Description: SANGER: Inhibition of human UM-UC-3 cell growth in a cell viability assay.
# [11] = system: MZ2-MEL; assay: cells; format: functional, cell-based, Homo sapiens;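 also: growth inhibition of MZ2-MEL cells read out with a cell viability assay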
# Description: SANGER: Inhibition of human MZ2-MEL cell growth in a cell viability assay.
# [12] = system: ASPC1; assay: cells; format: functional, cell-based, Homo sapiens;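 also: growth inhibition of AsPC-1 cells, read out with a cell viability assay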
# Description: SANGER: Inhibition of human AsPC-1 cell growth in a cell viability assay.
# [13] = system: NB13; assay: cells; format: functional, cell-based, Homo sapiens;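 also: cell viability readout measuring growth inhibition of human NB13 cells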
# Description: SANGER: Inhibition of human NB13 cell growth in a cell viability assay.
# [14] = system: KARPAS-299; assay: cells; format: functional, cell-based, Homo sapiens
# Description: SANGER: Inhibition of human KARPAS-299 cell growth in a cell viability assay.
# [15] = system: NCI-H716; assay: cells; format: functional, cell-based, Homo sapiens;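 also: growth inhibition of human NCI-H716 cells, measured by a cell viability assay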
# Description: SANGER: Inhibition of human NCI-H716 cell growth in a cell viability assay.
# [16] = system: MC-CAR; assay: cells; format: functional, cell-based, Homo sapiens;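 also: growth inhibition of the human MC-CAR cell line, read out by a cell viability assay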
# Description: SANGER: Inhibition of human MC-CAR cell growth in a cell viability assay.
# [17] = system: HCC1395; assay: cells; format: functional, cell-based, Homo sapiens;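 also: growth inhibition of HCC1395 cells, read out by a cell viability assay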
# Description: SANGER: Inhibition of human HCC1395 cell growth in a cell viability assay.
# [18] = system: FTC-133; assay: cells; format: functional, cell-based, Homo sapiens
# [19] = system: SKG-IIIa; assay: cells; format: functional, cell-based, Homo sapiens
# Description: SANGER: Inhibition of human SKG-IIIa cell growth in a cell viability assay.
# [20] = system: BC-3; assay: cells; format: functional, cell-based, Homo sapiens;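 also: cell viability assay measuring growth inhibition of human BC-3 cells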
# Description: SANGER: Inhibition of human BC-3 cell growth in a cell viability assay.
# [21] = system: LN-405; assay: cells; format: functional, cell-based, Homo sapiens
# Description: SANGER: Inhibition of human LN-405 cell growth in a cell viability assay.
# [22] = system: Lu-65; assay: cells; format: functional, cell-based, Homo sapiens;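 also: growth inhibition of Lu-65 cancer cells, read out by a cell viability assay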
# Description: SANGER: Inhibition of human LU-65 cell growth in a cell viability assay.
# [23] = system: NCI-H2087; assay: cells; format: functional, cell-based, Homo sapiens;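 also: growth inhibition determined with a cell viability readout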
# Description: SANGER: Inhibition of human NCI-H2087 cell growth in a cell viability assay.
# [24] = system: U-698-M; assay: cells; format: functional, cell-based, Homo sapiens
# Description: SANGER: Inhibition of human U-698-M cell growth in a cell viability assay.
# [25] = system: T98G; assay: cells; format: functional, cell-based, Homo sapiens;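 also: growth inhibition of T98G cells, read out by a cell viability assay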
# Description: SANGER: Inhibition of human T98G cell growth in a cell viability assay.
# [26] = system: PC-14; assay: cells; format: functional, cell-based, Homo sapiens;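 also: cell viability assay measuring inhibition of PC-14 cell growth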
# Description: SANGER: Inhibition of human PC-14 cell growth in a cell viability assay.
# [27] = system: SBC-1; assay: cells; format: functional, cell-based, Homo sapiens;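 also: cell viability assay measuring growth inhibition of the SBC-1 cell line, IC50 being the concentration that halves growth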
# Description: SANGER: Inhibition of human SBC-1 cell growth in a cell viability assay.
# [28] = system: BXPC-3; assay: cells; format: functional, cell-based, Homo sapiens;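 also: growth inhibition of human BxPC-3 cells, read out by a cell viability assay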
# Description: SANGER: Inhibition of human BxPC-3 cell growth in a cell viability assay.
# [29] = system: TE-1; assay: cells; format: functional, cell-based, Homo sapiens;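 also: growth inhibition of the human TE-1 cell line, read out with a cell viability assay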
# Description: SANGER: Inhibition of human TE-1 cell growth in a cell viability assay.
# [30] = system: MKN-45; assay: cells; format: functional, cell-based, Homo sapiens;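 also: growth inhibition of human MKN-45 cells, measured with a cell viability assay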
# Description: SANGER: Inhibition of human MKN45 cell growth in a cell viability assay.
# [31] = system: Huh-7; assay: cells; format: functional, cell-based, Homo sapiens;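 also: HuH-7 cell growth inhibition, read out with a cell viability assay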
# Description: SANGER: Inhibition of human HuH-7 cell growth in a cell viability assay.
# [32] = system: OCI-AML2; assay: cells; format: functional, cell-based, Homo sapiens;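 also: growth inhibition of OCI-AML2 cells, read out with a cell viability assay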
# Description: SANGER: Inhibition of human OCI-AML2 cell growth in a cell viability assay.
# [33] = system: CAPAN-1; assay: cells; format: functional, cell-based, Homo sapiens;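 also: growth suppression of CAPAN-1 cells, read out by a cell viability assay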
# Description: SANGER: Inhibition of human CAPAN-1 cell growth in a cell viability assay.
# [34] = system: HO-1-N-1; assay: cells; format: functional, cell-based, Homo sapiens;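 also: growth inhibition of human HO-1-N-1 cells, read out with a cell viability assay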
# Description: SANGER: Inhibition of human HO-1-N-1 cell growth in a cell viability assay.
# [35] = system: CAL-33; assay: cells; format: functional, cell-based, Homo sapiens;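 also: growth inhibition of CAL-33 cells, read out with a cell viability assay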
# Description: SANGER: Inhibition of human CAL-33 cell growth in a cell viability assay.
# [36] = system: CTB-1; assay: cells; format: functional, cell-based, Homo sapiens
# Description: SANGER: Inhibition of human CTB-1 cell growth in a cell viability assay.
# [37] = system: NCI-H2347; assay: cells; format: functional, cell-based, Homo sapiens
# Description: SANGER: Inhibition of human NCI-H2347 cell growth in a cell viability assay.
# [38] = system: LOX IMVI; assay: cells; format: functional, cell-based, Homo sapiens
# Description: SANGER: Inhibition of human LOXIMVI cell growth in a cell viability assay.
# [39] = system: KU812 cell line; assay: cells; format: functional, cell-based, Homo sapiens;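 also: growth inhibition of KU812 cells, read out with a cell viability assay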
# Description: SANGER: Inhibition of human KU812 cell growth in a cell viability assay.
# [40] = system: GAK; assay: cells; format: functional, cell-based, Homo sapiens
# Description: SANGER: Inhibition of human GAK cell growth in a cell viability assay.
# [41] = system: G-401; assay: cells; format: functional, cell-based, Homo sapiens
# Description: SANGER: Inhibition of human G-401 cell growth in a cell viability assay.
# [42] = system: RPMI 8402; assay: SANGER: Inhibition of human RPMI-8402 cell growth in a cell viability assay.; format: functional, cell-based; details: read-out: IC50
# [43] = system: MDA-MB-453; assay: cells; format: functional, cell-based, Homo sapiens
# Description: SANGER: Inhibition of human MDA-MB-453 cell growth in a cell viability assay.
# [44] = system: KY821; assay: cells; format: functional, cell-based, Homo sapiens;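 also: growth inhibition of human KY821 cells, read out by a cell viability assay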
# Description: SANGER: Inhibition of human KY821 cell growth in a cell viability assay.
# [45] = system: D-392MG; assay: cells; format: functional, cell-based, Homo sapiens
# [46] = system: HOP-62; assay: cells; format: functional, cell-based, Homo sapiens
# Description: SANGER: Inhibition of human HOP-62 cell growth in a cell viability assay.
# [47] = system: TE-441-T; assay: cells; format: functional, cell-based, Homo sapiens
# Description: SANGER: Inhibition of human TE-441-T cell growth in a cell viability assay.
compound,measurement,setting,value
Cc1cc([N+](=O)[O-])ccc1NS(=O)(=O)c1cc(Cl)ccc1Cl,IC50,"[1]; Homo sapiens, NCI-H1437",2.73 µM
same,IC50,"[2]; Homo sapiens, A 172",5.91 µM
same,IC50,"[3]; Homo sapiens, NCI-H358",6.31 µM
same,IC50,"[4]; Homo sapiens, GI-ME-N",11.5 µM
same,IC50,"[5]; Homo sapiens, NCI-H1304",> 32 µM
same,IC50,"[6]; Homo sapiens, NCI-H1581",9.37 µM
same,IC50,"[7]; Homo sapiens, ST486",4.83 µM
same,IC50,"[8]; Homo sapiens, 8505C",2.67 µM
same,IC50,"[9]; Homo sapiens, RPMI-2650",1.98 µM
same,IC50,"[10]; Homo sapiens, UMUC3",1.67 µM
same,IC50,"[11]; Homo sapiens, MZ2-MEL",1.44 µM
same,IC50,"[12]; Homo sapiens, ASPC1",22.3 µM
same,IC50,"[13]; Homo sapiens, NB13",7.32 µM
same,IC50,"[14]; Homo sapiens, KARPAS-299",> 32 µM
same,IC50,"[15]; Homo sapiens, NCI-H716",> 32 µM
same,IC50,"[16]; Homo sapiens, MC-CAR",8.99 µM
same,IC50,"[17]; Homo sapiens, HCC1395",0.381 µM
same,IC50,"[18]; Homo sapiens, FTC-133",6.74 µM
same,IC50,"[19]; Homo sapiens, SKG-IIIa",> 32 µM
same,IC50,"[20]; Homo sapiens, BC-3",8.38 µM
same,IC50,"[21]; Homo sapiens, LN-405",11.9 µM
same,IC50,"[22]; Homo sapiens, Lu-65",31.8 µM
same,IC50,"[23]; Homo sapiens, NCI-H2087",2.16 µM
same,IC50,"[24]; Homo sapiens, U-698-M",1.81 µM
same,IC50,"[25]; Homo sapiens, T98G",10.6 µM
same,IC50,"[26]; Homo sapiens, PC-14",20 µM
same,IC50,"[27]; Homo sapiens, SBC-1",> 32 µM
same,IC50,"[28]; Homo sapiens, BXPC-3",6.84 µM
same,IC50,"[29]; Homo sapiens, TE-1",7.65 µM
same,IC50,"[30]; Homo sapiens, MKN-45",2.15 µM
same,IC50,"[31]; Homo sapiens, Huh-7",1.57 µM
same,IC50,"[32]; Homo sapiens, OCI-AML2",2.52 µM
same,IC50,"[33]; Homo sapiens, CAPAN-1",2.4 µM
same,IC50,"[34]; Homo sapiens, HO-1-N-1",> 32 µM
same,IC50,"[35]; Homo sapiens, CAL-33",3.56 µM
same,IC50,"[36]; Homo sapiens, CTB-1",30.5 µM
same,IC50,"[37]; Homo sapiens, NCI-H2347",5.86 µM
same,IC50,"[38]; Homo sapiens, LOX IMVI",13.9 µM
same,IC50,"[39]; Homo sapiens, KU812",7.2 µM
same,IC50,"[40]; Homo sapiens, GAK",2.01 µM
same,IC50,"[41]; Homo sapiens, G-401",0.861 µM
same,IC50,"[42]; Homo sapiens, RPMI 8402",6.85 µM
same,IC50,"[43]; Homo sapiens, MDA-MB-453",10.8 µM
same,IC50,"[44]; Homo sapiens, KY821",> 32 µM
same,IC50,"[45]; Homo sapiens, D-392MG",> 32 µM
same,IC50,"[46]; Homo sapiens, HOP-62",5.08 µM
same,IC50,"[47]; Homo sapiens, TE-441-T",7.31 µM
Oc1ccc2ccccc2c1SSc1c(O)ccc2ccccc12,IC50,"[1]; Homo sapiens, NCI-H1437",> 32 µM
same,IC50,"[2]; Homo sapiens, A 172",> 32 µM
same,IC50,"[3]; Homo sapiens, NCI-H358",> 32 µM
same,IC50,"[4]; Homo sapiens, GI-ME-N",> 32 µM
same,IC50,"[5]; Homo sapiens, NCI-H1304",> 32 µM
same,IC50,"[6]; Homo sapiens, NCI-H1581",> 32 µM
same,IC50,"[7]; Homo sapiens, ST486",4.87 µM
same,IC50,"[8]; Homo sapiens, 8505C",11.2 µM
same,IC50,"[9]; Homo sapiens, RPMI-2650",> 32 µM
same,IC50,"[10]; Homo sapiens, UMUC3",> 32 µM
same,IC50,"[11]; Homo sapiens, MZ2-MEL",> 32 µM
same,IC50,"[12]; Homo sapiens, ASPC1",> 32 µM
same,IC50,"[13]; Homo sapiens, NB13",4.23 µM
same,IC50,"[14]; Homo sapiens, KARPAS-299",> 32 µM
same,IC50,"[15]; Homo sapiens, NCI-H716",> 32 µM
same,IC50,"[16]; Homo sapiens, MC-CAR",5.71 µM
same,IC50,"[17]; Homo sapiens, HCC1395",> 32 µM
same,IC50,"[18]; Homo sapiens, FTC-133",> 32 µM
same,IC50,"[19]; Homo sapiens, SKG-IIIa",> 32 µM
same,IC50,"[20]; Homo sapiens, BC-3",> 32 µM
same,IC50,"[21]; Homo sapiens, LN-405",> 32 µM
same,IC50,"[22]; Homo sapiens, Lu-65",> 32 µM
same,IC50,"[23]; Homo sapiens, NCI-H2087",> 32 µM
same,IC50,"[24]; Homo sapiens, U-698-M",3.24 µM
same,IC50,"[25]; Homo sapiens, T98G",> 32 µM
same,IC50,"[26]; Homo sapiens, PC-14",> 32 µM
same,IC50,"[27]; Homo sapiens, SBC-1",> 32 µM
same,IC50,"[28]; Homo sapiens, BXPC-3",> 32 µM
same,IC50,"[29]; Homo sapiens, TE-1",> 32 µM
same,IC50,"[30]; Homo sapiens, MKN-45",> 32 µM
same,IC50,"[31]; Homo sapiens, Huh-7",> 32 µM
same,IC50,"[32]; Homo sapiens, OCI-AML2",8.06 µM
same,IC50,"[33]; Homo sapiens, CAPAN-1",> 32 µM
same,IC50,"[34]; Homo sapiens, HO-1-N-1",> 32 µM
same,IC50,"[35]; Homo sapiens, CAL-33",> 32 µM
same,IC50,"[36]; Homo sapiens, CTB-1",12.7 µM
same,IC50,"[37]; Homo sapiens, NCI-H2347",> 32 µM
same,IC50,"[38]; Homo sapiens, LOX IMVI",> 32 µM
same,IC50,"[39]; Homo sapiens, KU812",2.76 µM
same,IC50,"[40]; Homo sapiens, GAK",> 32 µM
same,IC50,"[41]; Homo sapiens, G-401",7.53 µM
same,IC50,"[42]; Homo sapiens, RPMI 8402",5.77 µM
same,IC50,"[43]; Homo sapiens, MDA-MB-453",> 32 µM
same,IC50,"[44]; Homo sapiens, KY821",> 32 µM
same,IC50,"[45]; Homo sapiens, D-392MG",> 32 µM
same,IC50,"[46]; Homo sapiens, HOP-62",> 32 µM
same,IC50,"[47]; Homo sapiens, TE-441-T",11.5 µM
BLEOMYCIN,IC50,[1]; nci-h1437,0.743 µM
same,IC50,[2]; a 172,39.7 µM
same,IC50,[3]; nci-h358,0.373 µM
same,IC50,[4]; gi-me-n,0.441 µM
same,IC50,[5]; nci-h1304,4.1 µM
same,IC50,[6]; nci-h1581,110 µM
same,IC50,[7]; st486,6.39 µM
same,IC50,[8]; 8505c,1.04 µM
same,IC50,[9]; rpmi-2650,0.633 µM
same,IC50,[10]; umuc3,0.956 µM
same,IC50,[11]; mz2-mel,2.95 µM
same,IC50,[12]; aspc1,82.5 µM
same,IC50,[13]; nb13,36.7 µM
same,IC50,[14]; karpas-299,27.2 µM
same,IC50,[15]; nci-h716,1420 µM
same,IC50,[16]; mc-car,1.4 µM
same,IC50,[17]; hcc1395,0.501 µM
same,IC50,[18]; ftc-133,1.29 µM
same,IC50,[19]; skg-iiia,136 µM
same,IC50,[20]; bc-3,0.521 µM
same,IC50,[21]; ln-405,402 µM
same,IC50,[22]; lu-65,19.5 µM
same,IC50,[23]; nci-h2087,2.35 µM
same,IC50,[24]; u-698-m,13 µM
same,IC50,[25]; t98g,63.7 µM
same,IC50,[26]; pc-14,0.183 µM
same,IC50,[27]; sbc-1,370 µM
same,IC50,[28]; bxpc-3,3.81 µM
same,IC50,[29]; te-1,6.43 µM
same,IC50,[30]; mkn-45,0.0248 µM
same,IC50,[31]; huh-7,2.43 µM
same,IC50,[32]; oci-aml2,2.26 µM
same,IC50,[33]; capan-1,2.92 µM
same,IC50,[34]; ho-1-n-1,4.42 µM
same,IC50,[35]; cal-33,2.15 µM
same,IC50,[36]; ctb-1,0.0269 µM
same,IC50,[37]; nci-h2347,5.12 µM
same,IC50,[38]; lox imvi,0.452 µM
same,IC50,[39]; ku812,68 µM
same,IC50,[40]; gak,126 µM
same,IC50,[41]; g-401,3.29 µM
same,IC50,[42]; rpmi-8402,30.7 µM
same,IC50,[43]; mda-mb-453,15.4 µM
same,IC50,[44]; ky821,471 µM
same,IC50,[45]; d-392mg,13.6 µM
same,IC50,[46]; hop-62,0.00413 µM
same,IC50,[47]; te-441-t,24.6 µM
